Laboratory results from US20230091047A1 (priority 2019, published 2023).
Read-outs that look alike come from different tables or passages of the source.

Experiments:
[1] = in vitro; type: cell-based; settings: human, HepG2 or HepG2.117 cells, ATPlite, mean value
In short: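 Luminescent ATP quantitation served as the viability endpoint following a 3- or 4-day incubation with test compounds.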

[2] = test system: HBV (HepG2.117 cell line, inducibly HBV producing); assay: Anti-HBV activity: intracellular HBV DNA by real-time PCR in HepG2.117 cells after 3 days of treatment; type: cell-based, hepatitis B virus
In short: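 HepG2.117 cells replicate HBV under Tet-off control, without doxycycline. After induction of replication, cells were treated with serially diluted compound for 3 days, and intracellular HBV DNA was then quantified by real-time PCR with an HBV-specific primer set and probe.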

[3] = 3-days incubation (not marked with *)
[4] = Hepatitis B virus, HepG2.117, 72 h, HepG2.117 cells, intracellular HBV DNA by real-time PCR, 3 days of treatment, mean value; read-out: EC50 (μM, mean value)
[5] = 3-days incubation (unmarked values)
[6] = Hepatitis B virus, HepG2.117, 72 h, HepG2.117 cells, 3 days of treatment, intracellular HBV DNA by real-time PCR; mean value; read-out: EC50 (μM, mean value)

SMILES	CC50 at 3 days [1, 3]	EC50 [2, 4]	CC50 at 3 days [1, 5]	EC50 [2, 6]	CC50 at 4 days ([1]; 4-days incubation (values marked with *))
CNC(=O)c1cc(-n2c(NC(C)C)nc3c(c2=O)C[C@@H](C)N(C(=O)c2ccc(Cl)c(C(F)(F)F)c2)C3)[nH]n1 [Compound C687]	> 50 µM	0.02 µM			
CC(C)Nc1nc2c(c(=O)[nH]1)C[C@@H](C)N(C(=O)c1ccc(Cl)c(Cl)c1)C2 [Compound C384]	> 50 µM	0.75 µM			
CNC(=O)c1ccc(-n2c(N[C@H](C)c3ccc(F)c(OC)c3)nc3c(c2=O)C[C@@H](C)N(C(=O)c2ccc(Cl)c(Cl)c2)C3)cc1 (single isomer, unassigned) [Compound C435a]	26.4 µM	0.1 µM			
CNC(=O)c1ccc(-n2c(N[C@@H](C)c3ccccc3C(F)(F)F)nc3c(c2=O)C[C@@H](C)N(C(=O)c2ccc(Cl)c(Cl)c2)C3)cc1 [Compound C443]	7.2 µM	0.45 µM			
CC(C)Nc1nc2c(c(=O)n1-c1ccc(-c3ncccn3)cc1)C[C@@H](C)N(C(=O)c1ccc(Cl)c(Cl)c1)C2 [Compound C237, (6R)-7-(3,4-dichlorobenzoyl)-6-methyl-2-[(propan-2-yl)amino]-3-[4-(pyrimidin-2-yl)phenyl]-5,6,7,8-tetrahydropyrido[3,4-d]pyrimidin-4(3H)-one]			> 50 µM	0.23 µM	
CNC(=O)c1ccc(-n2c(NC(CC3CC3)c3ccccc3)nc3c(c2=O)C[C@@H](C)N(C(=O)c2ccc(Cl)c(Cl)c2)C3)cc1 (some centres unmarked) [Compound C437]	28.1 µM	0.44 µM			
CNC(=O)c1ccc(-n2c(NC(C)C)nc3c(c2=O)C[C@@H](C)N(C(=O)c2ccc(Cl)c(C(F)(F)F)c2)C3)nn1 [Compound C684]	> 50 µM	0.06 µM			
CC(C)Nc1nc2c(c(=O)n1-c1ccc3c(c1)CNC3=O)C[C@@H](C)N(C(=O)c1ccc(Cl)c(Cl)c1)C2 [Compound C231, (6R)-7-(3,4-dichlorobenzoyl)-6-methyl-3-(1-oxo-2,3-dihydro-1H-isoindol-5-yl)-2-[(propan-2-yl)amino]-5,6,7,8-tetrahydropyrido[3,4-d]pyrimidin-4(3H)-one]			> 50 µM	0.15 µM	
Cc1noc(-c2ccc(-n3c(NC(C)C)nc4c(c3=O)C[C@@H](C)N(C(=O)c3ccc(Cl)c(Cl)c3)C4)cc2)n1 [Compound C371]			> 50 µM	0.13 µM	
CNC(=O)C12CC(n3c(NC(C)C)nc4c(c3=O)C[C@@H](C)N(C(=O)c3ccc(Cl)c(Cl)c3)C4)(C1)C2 [Compound C261, 3-[(6R)-7-(3,4-dichlorobenzoyl)-6-methyl-4-oxo-2-[(propan-2-yl)amino]-5,6,7,8-tetrahydropyrido[3,4-d]pyrimidin-3(4H)-yl]-N-methylbicyclo[1.1.1]pentane-1-carboxamide]			> 50 µM	0.34 µM	
CNC(=O)c1ccc(-n2c(NCC3CC3C)nc3c(c2=O)C[C@@H](C)N(C(=O)c2ccc(Cl)c(Cl)c2)C3)cc1 (some centres unmarked) [Compound C547]	47.2 µM	0.97 µM			
O=C(c1ccc(Cl)c(Cl)c1)N1CCc2c(nc(NCc3ccccc3)n(-c3ccccc3)c2=O)C1 [Compound C33, 2-(benzylamino)-7-(3,4-dichlorobenzoyl)-3-phenyl-5,6,7,8-tetrahydropyrido[3,4-d]pyrimidin-4(3H)-one]			24.4 µM	4.27 µM	
CC(C)Nc1nc2c(c(=O)n1-c1ccc(S(C)(=O)=O)cc1)CCN(C(=O)c1ccc3c(c1)CCO3)C2 [Compound C155, 7-(2,3-dihydro-1-benzofuran-5-carbonyl)-3-[4-(methanesulfonyl)phenyl]-2-[(propan-2-yl)amino]-5,6,7,8-tetrahydropyrido[3,4-d]pyrimidin-4(3H)-one]			> 50 µM	5.29 µM	
COc1ccc(CNc2nc3c(c(=O)n2-c2cccc(OC)c2)CCN(C(=O)c2ccc(Cl)c(Cl)c2)C3)cc1 [Compound C8, 7-(3,4-dichlorobenzoyl)-3-(3-methoxyphenyl)-2-{[(4-methoxyphenyl)methyl]amino}-5,6,7,8-tetrahydropyrido[3,4-d]pyrimidin-4(3H)-one]			> 50 µM	1 µM	
COc1ccc(CNc2nc3c(c(=O)n2C2CCCC2)CCN(C(=O)c2ccc(Cl)c(Cl)c2)C3)cc1 [Compound C73, 3-cyclopentyl-7-(3,4-dichlorobenzoyl)-2-{[(4-methoxyphenyl)methyl]amino}-5,6,7,8-tetrahydropyrido[3,4-d]pyrimidin-4(3H)-one]			> 50 µM	9.37 µM	
CNC(=O)c1ccc(-n2c(NC(C)C)nc3c(c2=O)C[C@@H](C)N(C(=O)c2ccc(F)c(C(F)F)c2)C3)cc1 [Compound C634]	> 50 µM	0.63 µM			

SMILES	CC50 at 3 days [1, 3]	EC50 [2, 4]	CC50 at 3 days [1, 5]	EC50 [2, 6]	CC50 at 4 days ([1]; 4-days incubation (values marked with *))
COc1ccc(CNc2nc3c(c(=O)[nH]2)C[C@@H](C)N(C(=O)c2ccc(Cl)c(Cl)c2)C3)cc1 [Compound C63A, (6R)-7-(3,4-dichlorobenzoyl)-2-{[(4-methoxyphenyl)methyl]amino}-6-methyl-5,6,7,8-tetrahydropyrido[3,4-d]pyrimidin-4(3H)-one]			30.4 µM	3.58 µM	
CC(C)Nc1nc2c(c(=O)n1-c1ccc(S(C)(=O)=O)cc1)CCN(C(=O)c1ccc(C(F)(F)F)c(Cl)c1)C2 [Compound C194, 7-[3-chloro-4-(trifluoromethyl)benzoyl]-3-[4-(methanesulfonyl)phenyl]-2-[(propan-2-yl)amino]-5,6,7,8-tetrahydropyrido[3,4-d]pyrimidin-4(3H)-one]			> 50 µM	0.55 µM	
CNC(=O)c1ccc(-n2c(N[C@@H]3C[C@H]3c3ccc(OC)cc3)nc3c(c2=O)C[C@@H](C)N(C(=O)c2ccc(Cl)c(Cl)c2)C3)cc1 (single isomer, unassigned) [Compound C452a]	> 25 µM	1.44 µM			
CC(C)Nc1nc2c(c(=O)n1-c1ccc(C(=O)NC3COC3)cc1)C[C@@H](C)N(C(=O)c1ccc(Cl)c(Cl)c1)C2 [Compound C209, 4-[(6R)-7-(3,4-dichlorobenzoyl)-6-methyl-4-oxo-2-[(propan-2-yl)amino]-5,6,7,8-tetrahydropyrido[3,4-d]pyrimidin-3(4H)-yl]-N-(oxetan-3-yl)benzamide]			> 50 µM	0.82 µM	
CC(C)Nc1nc2c(c(=O)n1-c1ccc(C(=O)NC3CC3)cc1)C[C@@H](C)N(C(=O)c1ccc(Cl)c(C(F)F)c1)C2 [Compound C681]	> 50 µM	0.04 µM			
CNC(=O)c1ccc(-n2c(NC(C)C)nc3c(c2=O)C[C@@H](C)N(C(=O)c2cc(C)c(C#N)c(C)c2)C3)cc1 [Compound C506]	> 50 µM	0.94 µM			
COC(=O)c1ccc(-n2c(NC(C)C)nc3c(c2=O)C[C@@H](C)N(C(=O)c2ccc(Cl)c(Cl)c2)C3)cn1 [Compound C226]			> 50 µM	2.3 µM	
COc1ccccc1-n1c(NCc2ccc(Cl)cc2Cl)nc2c(c1=O)CCN(C(=O)c1ccc(Cl)c(Cl)c1)C2 [Compound C30, 7-(3,4-dichlorobenzoyl)-2-{[(2,4-dichlorophenyl)methyl]amino}-3-(2-methoxyphenyl)-5,6,7,8-tetrahydropyrido[3,4-d]pyrimidin-4(3H)-one]			> 50 µM	> 50 µM	
CC(C)Nc1nc2c(c(=O)n1-c1ccc(S(C)(=O)=O)cc1)CCN(C(=O)c1ccc(Cl)c(C(C)C)c1)C2 [Compound C222, 7-[4-chloro-3-(propan-2-yl)benzoyl]-3-[4-(methanesulfonyl)phenyl]-2-[(propan-2-yl)amino]-5,6,7,8-tetrahydropyrido[3,4-d]pyrimidin-4(3H)-one]			> 50 µM	1.45 µM	
COc1ccccc1-n1c(NCc2nccs2)nc2c(c1=O)CCN(C(=O)c1ccc(Cl)c(Cl)c1)C2 [Compound C13, 7-(3,4-dichlorobenzoyl)-3-(2-methoxyphenyl)-2-{[(1,3-thiazol-2-yl)methyl]amino}-5,6,7,8-tetrahydropyrido[3,4-d]pyrimidin-4(3H)-one]				8.75 µM	38.9 µM
CNC(=O)c1ccc([C@@H](C)Nc2nc3c(c(=O)n2-c2ccc(NC(C)=O)cc2)C[C@@H](C)N(C(=O)c2ccc(Cl)c(Cl)c2)C3)cc1 (single isomer, unassigned) [Compound C528a]	> 50 µM	3.38 µM			
CNC(=O)c1ccc(-n2c(NC(C)C)nc3c(c2=O)C[C@@H](C)N(C(=O)c2ccc4c(c2)CNC4=O)C3)cc1 [Compound C494]	> 50 µM	2.64 µM			
CC(C)Nc1nc2c(c(=O)n1-c1ccc(-n3cccn3)cc1)C[C@@H](C)N(C(=O)c1ccc(Cl)c(Cl)c1)C2 [Compound C166, (6R)-7-(3,4-dichlorobenzoyl)-6-methyl-2-[(propan-2-yl)amino]-3-[4-(1H-pyrazol-1-yl)phenyl]-5,6,7,8-tetrahydropyrido[3,4-d]pyrimidin-4(3H)-one]			> 50 µM	0.11 µM	
CC(=O)Nc1ccc(-n2c(N[C@@H](C)c3ccc4[nH]ncc4c3)nc3c(c2=O)C[C@@H](C)N(C(=O)c2ccc(Cl)c(Cl)c2)C3)cc1 (single isomer, unassigned) [Compound C462b]	> 50 µM	0.37 µM			
COc1ccc(CNc2nc3c(c(=O)[nH]2)CCN(C(=O)c2ccc(C#N)c(Cl)c2)C3)cc1 [Compound C82, 2-chloro-4-[2-{[(4-methoxyphenyl)methyl]amino}-4-oxo-4,5,6,8-tetrahydropyrido[3,4-d]pyrimidine-7(3H)-carbonyl]benzonitrile]			> 50 µM	23.4 µM	
